Experiments:
[1] = molecular target: ROCK-I (h, amino acids 17-535) (Homo sapiens (Human), UniProt Q13464); assay: ROCK-I (h) inhibition assay; format: biochemical; settings: radiometric [γ-32P-ATP] filter assay, 40 minutes at room temperature; read-out: ROCK1 IC50
Method: ROCK-I (h) Inhibition Assay:
In a final reaction volume of 25 μL, ROCK-I (h, amino acids 17-535) (5-10 mU) was incubated with 8 mM MOPS pH 7.0, 0.2 mM EDTA, 30 μM […], 10 mM magnesium acetate and [γ-^32P-ATP] (specific activity approx. 500 cpm/pmol, concentration as required). The reaction was initiated by the addition of the MgATP mix. After incubation for 40 minutes at room temperature, the reaction was stopped by the addition of 5 μL of a 3% phosphoric acid solution. 10 μL of the reaction was then spotted onto a P30 filtermat and washed three times for 5 minutes in 75 mM phosphoric acid and once in methanol prior to drying and scintillation counting.

[2] = molecular target: ROCK-II (h, amino acids 11-552) (Homo sapiens (Human), UniProt O75116); assay: ROCK-II (h) inhibition assay; format: biochemical; settings: radiometric [γ-32P-ATP] filter assay, 40 minutes at room temperature; read-out: ROCK2 IC50
Method: ROCK-II (h) Inhibition Assay:
In a final reaction volume of 25 μL, ROCK-II (h, amino acids 11-552) (5-10 mU) was incubated with 50 mM Tris pH 7.5, 0.1 mM EGTA, 30 μM […], 10 mM magnesium acetate and [γ-^32P-ATP] (specific activity approx. 500 cpm/pmol, concentration as required). The reaction was initiated by the addition of the MgATP mix. After incubation for 40 minutes at room temperature, the reaction was stopped by the addition of 5 μL of a 3% phosphoric acid solution. 10 μL of the reaction was then spotted onto a P30 filter-mat and washed three times for 5 minutes in 75 mM phosphoric acid and once in methanol prior to drying and scintillation counting.

Chain of ROCK-I (h, amino acids 17-535) (Q13464 17-535): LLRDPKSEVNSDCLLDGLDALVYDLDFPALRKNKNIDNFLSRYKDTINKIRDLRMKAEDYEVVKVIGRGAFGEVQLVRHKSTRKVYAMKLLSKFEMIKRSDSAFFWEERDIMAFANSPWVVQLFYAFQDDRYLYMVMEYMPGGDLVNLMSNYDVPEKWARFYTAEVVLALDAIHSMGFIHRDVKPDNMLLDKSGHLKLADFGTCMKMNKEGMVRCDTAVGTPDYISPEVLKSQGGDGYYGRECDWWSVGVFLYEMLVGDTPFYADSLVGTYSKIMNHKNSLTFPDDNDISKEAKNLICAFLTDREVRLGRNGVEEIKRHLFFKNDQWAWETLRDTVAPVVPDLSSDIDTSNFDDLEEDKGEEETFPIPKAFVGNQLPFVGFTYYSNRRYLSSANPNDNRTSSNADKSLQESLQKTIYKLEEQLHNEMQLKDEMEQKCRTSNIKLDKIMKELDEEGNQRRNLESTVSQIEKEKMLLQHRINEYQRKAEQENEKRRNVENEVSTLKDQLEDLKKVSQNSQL
Chain of ROCK-II (h, amino acids 11-552) (O75116 11-552): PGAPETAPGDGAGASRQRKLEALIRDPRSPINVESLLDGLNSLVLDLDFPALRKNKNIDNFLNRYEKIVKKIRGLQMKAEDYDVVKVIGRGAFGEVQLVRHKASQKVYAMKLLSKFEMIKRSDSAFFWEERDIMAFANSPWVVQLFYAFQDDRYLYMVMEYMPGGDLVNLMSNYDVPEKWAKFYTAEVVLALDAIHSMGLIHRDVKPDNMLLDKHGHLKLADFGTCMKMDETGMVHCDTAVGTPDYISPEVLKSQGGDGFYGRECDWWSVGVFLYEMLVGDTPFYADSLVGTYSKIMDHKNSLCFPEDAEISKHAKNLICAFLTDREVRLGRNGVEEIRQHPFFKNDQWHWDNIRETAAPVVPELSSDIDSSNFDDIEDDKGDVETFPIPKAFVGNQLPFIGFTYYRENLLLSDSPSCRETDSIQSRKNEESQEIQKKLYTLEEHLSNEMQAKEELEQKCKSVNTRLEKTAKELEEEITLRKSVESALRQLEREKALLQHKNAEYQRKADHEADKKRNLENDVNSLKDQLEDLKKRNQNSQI

SMILES	IC50 [1] [µM]	IC50 [2] [nM]
CN1C(=O)[C@@H](Cc2ccc(-c3ccncc3)cc2)NC(=O)c2ccc(Cl)cc21 [Compound 4, (R)-8-chloro-1-methyl-3-(4-(pyridin-4-yl)benzyl)-3,4-dihydro-1H-benzo[e][1,4]diazepine-2,5-dione]	> 10	800
C[C@@]1(Cc2ccc(-c3ccncc3)cc2)NC(=O)c2cc(Cl)ccc2NC1=O [Compound 2, (S)-7-chloro-3-methyl-3-(4-(pyridin-4-yl)benzyl)-3,4-dihydro-1H-benzo[e][1,4]diazepine-2,5-dione]	> 10	
CN1C(=O)[C@@H](Cc2ccc(-c3ccncc3)cc2)NC(=O)c2cccc(Cl)c21 [Compound 5, (R)-9-chloro-1-methyl-3-(4-(pyridin-4-yl)benzyl)-3,4-dihydro-1H-benzo[e][1,4]diazepine-2,5-dione]	> 10	
CN1C(=O)[C@@H](Cc2ccc(-c3ccncc3)cc2)NC(=O)c2c(Cl)cccc21 [Compound 3, (R)-6-chloro-1-methyl-3-(4-(pyridin-4-yl)benzyl)-3,4-dihydro-1H-benzo[e][1,4]diazepine-2,5-dione]	> 30	860
CN1C(=O)[C@@H](Cc2ccc(-c3ccncc3)cc2)NC(=O)c2cc(Cl)ccc21 [Compound 1, (R)-7-chloro-1-methyl-3-(4-(pyridin-4-yl)benzyl)-3,4-dihydro-1H-benzo[e][1,4]diazepine-2,5-dione]	> 30	1100
